Measurements reported in ChEMBL document CHEMBL1129841, “Peptide based inhibitors of interleukin-8: structural simplification and enhanced potency” (Bioorg Med Chem Lett, 1997).
*1 amine or outer side, *2 acyl side, *3 side chain or, on linkers, in order; H or OH if unused. Where a SMILES comes first, the peptide text is derived from it. [ ]: non-standard residue; d: D form. ξ: configuration not given here. 2(aminomethyl)benzoyl = O=C(c1ccccc1CN[*:1])[*:2]; X1 = C[C@@H](CCCC(=O)[*:2])N[*:1]; X2 = C[C@H](CCCN[*:1])C(=O)[*:2]; ξThr(3R) = C[C@@H](O)C(N)C(=O)O; 12Ado = NCCCCCCCCCCCC(=O)O; 3Amb = NCc1cccc(C(=O)O)c1; 4Amb = NCc1ccc(C(=O)O)cc1; Aun = NCCCCCCCCCCC(=O)O; Aoc = NCCCCCCCC(=O)O; Ahx = NCCCCCC(=O)O; ξP = O=C(O)C1CCCN1; Ava = NCCCCC(=O)O; GABA = NCCCC(=O)O

molecular target: T1, Interleukin-8 (Homo sapiens, UniProt P10145); experiment: Inhibition of Interleukin-8 (IL-8)
T1 sequence (P10145 whole entry): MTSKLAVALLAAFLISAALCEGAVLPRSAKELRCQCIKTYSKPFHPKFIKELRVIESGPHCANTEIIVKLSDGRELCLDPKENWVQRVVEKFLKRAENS

Compound | Ki [µM]
CSCC[C@H](NC(C)=O)C(=O)N[C@@H](Cc1c[nH]c2ccccc12)C(=O)N[C@@H](CC(=O)O)C(=O)N[C@@H](Cc1ccccc1)C(=O)N[C@@H](CC(=O)O)C(=O)N[C@@H](CC(=O)O)C(=O)NCCCCCCCCCCC(=O)N[C@@H](CCSC)C(=O)N1CCC[C@H]1C(=O)N1CCC[C@H]1C(=O)N[C@@H](C)C(=O)N[C@@H](CC(=O)O)C(=O)N[C@@H](CCC(=O)O)C(=O)N[C@@H](CC(=O)O)C(=O)N[C@@H](Cc1ccc(O)cc1)C(=O)N[C@@H](CO)C(=O)N1CCC[C@H]1C(N)=O (Ac-MWDFDD[Aun]MPPADEDYSP-NH2) | 6
CSCC[C@H](NC(C)=O)C(=O)N[C@@H](Cc1c[nH]c2ccccc12)C(=O)N[C@@H](CC(=O)O)C(=O)N[C@@H](Cc1ccccc1)C(=O)N[C@@H](CC(=O)O)C(=O)N[C@@H](CC(=O)O)C(=O)N[C@@H](CC(C)C)C(=O)N[C@@H](CC(N)=O)C(=O)N[C@@H](Cc1ccccc1)C(=O)N[C@@H](C)CCCC(=O)N[C@@H](CCSC)C(=O)N1CCC[C@H]1C(=O)N1CCC[C@H]1C(=O)N[C@@H](C)C(=O)N[C@@H](CC(=O)O)C(=O)N[C@@H](CCC(=O)O)C(=O)N[C@@H](CC(=O)O)C(=O)N[C@@H](Cc1ccc(O)cc1)C(=O)N[C@@H](CO)C(=O)N1CCC[C@H]1C(N)=O (Ac-MWDFDDLNF[X1]MPPADEDYSP-NH2) | 10
Ac-MWDFDDGMPPADEDYSP-NH2 | 31
CSCC[C@H](NC(C)=O)C(=O)N[C@@H](Cc1c[nH]c2ccccc12)C(=O)N[C@@H](CC(=O)O)C(=O)N[C@@H](Cc1ccccc1)C(=O)N[C@@H](CC(=O)O)C(=O)N[C@@H](CC(=O)O)C(=O)N[C@@H](CC(C)C)C(=O)N[C@@H](CC(N)=O)C(=O)N[C@@H](Cc1ccccc1)C(=O)NCCCCC(=O)N[C@@H](CCSC)C(=O)N1CCC[C@H]1C(=O)N1CCC[C@H]1C(=O)N[C@@H](C)C(=O)N[C@@H](CC(=O)O)C(=O)N[C@@H](CCC(=O)O)C(=O)N[C@@H](CC(=O)O)C(=O)N[C@@H](Cc1ccc(O)cc1)C(=O)N[C@@H](CO)C(=O)N1CCC[C@H]1C(N)=O (Ac-MWDFDDLNF[Ava]MPPADEDYSP-NH2) | 13
CSCC[C@H](NC(C)=O)C(=O)N[C@@H](Cc1c[nH]c2ccccc12)C(=O)N[C@@H](CC(=O)O)C(=O)N[C@@H](Cc1ccccc1)C(=O)N[C@@H](CC(=O)O)C(=O)N[C@@H](CC(=O)O)C(=O)NCCCC(=O)N[C@@H](CCSC)C(=O)N1CCC[C@H]1C(=O)N1CCC[C@H]1C(=O)N[C@@H](C)C(=O)N[C@@H](CC(=O)O)C(=O)N[C@@H](CCC(=O)O)C(=O)N[C@@H](CC(=O)O)C(=O)N[C@@H](Cc1ccc(O)cc1)C(=O)N[C@@H](CO)C(=O)N1CCC[C@H]1C(N)=O (Ac-MWDFDD[GABA]MPPADEDYSP-NH2) | 14
CSCC[C@H](NC(C)=O)C(=O)N[C@@H](Cc1c[nH]c2ccccc12)C(=O)N[C@@H](CC(=O)O)C(=O)N[C@@H](Cc1ccccc1)C(=O)N[C@@H](CC(=O)O)C(=O)N[C@@H](CC(=O)O)C(=O)N[C@@H](CC(C)C)C(=O)N[C@@H](CC(N)=O)C(=O)N[C@@H](Cc1ccccc1)C(=O)NCc1ccc(C(=O)N[C@@H](CCSC)C(=O)N2CCC[C@H]2C(=O)N2CCC[C@H]2C(=O)N[C@@H](C)C(=O)N[C@@H](CC(=O)O)C(=O)N[C@@H](CCC(=O)O)C(=O)N[C@@H](CC(=O)O)C(=O)N[C@@H](Cc2ccc(O)cc2)C(=O)N[C@@H](CO)C(=O)N2CCC[C@H]2C(N)=O)cc1 (Ac-MWDFDDLNF[4Amb]MPPADEDYSP-NH2) | 2.3
CSCC[C@H](NC(C)=O)C(=O)N[C@@H](Cc1c[nH]c2ccccc12)C(=O)N[C@@H](CC(=O)O)C(=O)N[C@@H](Cc1ccccc1)C(=O)N[C@@H](CC(=O)O)C(=O)N[C@@H](CC(=O)O)C(=O)NCCCCCCCCCCCC(=O)N[C@@H](CCSC)C(=O)N1CCC[C@H]1C(=O)N1CCC[C@H]1C(=O)N[C@@H](C)C(=O)N[C@@H](CC(=O)O)C(=O)N[C@@H](CCC(=O)O)C(=O)N[C@@H](CC(=O)O)C(=O)N[C@@H](Cc1ccc(O)cc1)C(=O)N[C@@H](CO)C(=O)N1CCC[C@H]1C(N)=O (Ac-MWDFDD[12Ado]MPPADEDYSP-NH2) | 4
CSCC[C@H](NC(C)=O)C(=O)N[C@@H](Cc1c[nH]c2ccccc12)C(=O)N[C@@H](CC(=O)O)C(=O)N[C@@H](Cc1ccccc1)C(=O)N[C@@H](CC(=O)O)C(=O)N[C@@H](CC(=O)O)C(=O)N[C@@H](CC(C)C)C(=O)N[C@@H](CC(N)=O)C(=O)N[C@@H](Cc1ccccc1)C(=O)NC(C(=O)NCCCCC(=O)N1CCC[C@H]1C(=O)N1CCC[C@H]1C(=O)N[C@@H](C)C(=O)N[C@@H](CC(=O)O)C(=O)N[C@@H](CCC(=O)O)C(=O)N[C@@H](CC(=O)O)C(=O)N[C@@H](Cc1ccc(O)cc1)C(=O)N[C@@H](CO)C(=O)N1CCC[C@H]1C(N)=O)[C@@H](C)O (stereo partly drawn) (Ac-MWDFDDLNF[ξThr(3R)][Ava]PPADEDYSP-NH2) | 106
CSCC[C@H](NC(C)=O)C(=O)N[C@@H](Cc1c[nH]c2ccccc12)C(=O)N[C@@H](CC(=O)O)C(=O)N[C@@H](Cc1ccccc1)C(=O)N[C@@H](CC(=O)O)C(=O)N[C@@H](CC(=O)O)C(=O)NCCCCCCCC(=O)N[C@@H](CCSC)C(=O)N1CCC[C@H]1C(=O)N1CCC[C@H]1C(=O)N[C@@H](C)C(=O)N[C@@H](CC(=O)O)C(=O)N[C@@H](CCC(=O)O)C(=O)N[C@@H](CC(=O)O)C(=O)N[C@@H](Cc1ccc(O)cc1)C(=O)N[C@@H](CO)C(=O)N1CCC[C@H]1C(N)=O (Ac-MWDFDD[Aoc]MPPADEDYSP-NH2) | 12

Results, then the compound that gave them:

Ki [µM] | Compound
13 | Ac-MWDFDDLNFTGMPPADEDYSP-NH2
383 | CSCC[C@H](NC(C)=O)C(=O)N[C@@H](Cc1c[nH]c2ccccc12)C(=O)N[C@@H](CC(=O)O)C(=O)N[C@@H](Cc1ccccc1)C(=O)N[C@@H](CC(=O)O)C(=O)N[C@@H](CC(=O)O)C(=O)N[C@@H](CC(C)C)C(=O)N[C@@H](CC(N)=O)C(=O)N[C@@H](Cc1ccccc1)C(=O)NC(C(=O)NCCC[C@@H](C)C(=O)N1CCC[C@H]1C(=O)N1CCC[C@H]1C(=O)N[C@@H](C)C(=O)N[C@@H](CC(=O)O)C(=O)N[C@@H](CCC(=O)O)C(=O)N[C@@H](CC(=O)O)C(=O)N[C@@H](Cc1ccc(O)cc1)C(=O)N[C@@H](CO)C(=O)N1CCC[C@H]1C(N)=O)[C@@H](C)O (stereo partly drawn) (Ac-MWDFDDLNF[ξThr(3R)][X2]PPADEDYSP-NH2)
9.3 | CSCC[C@H](NC(C)=O)C(=O)N[C@@H](Cc1c[nH]c2ccccc12)C(=O)N[C@@H](CC(=O)O)C(=O)N[C@@H](Cc1ccccc1)C(=O)N[C@@H](CC(=O)O)C(=O)N[C@@H](CC(=O)O)C(=O)N[C@@H](CC(C)C)C(=O)N[C@@H](CC(N)=O)C(=O)N[C@@H](Cc1ccccc1)C(=O)NCc1ccccc1C(=O)N[C@@H](CCSC)C(=O)N1CCC[C@H]1C(=O)N1CCC[C@H]1C(=O)N[C@@H](C)C(=O)N[C@@H](CC(=O)O)C(=O)N[C@@H](CCC(=O)O)C(=O)N[C@@H](CC(=O)O)C(=O)N[C@@H](Cc1ccc(O)cc1)C(=O)N[C@@H](CO)C(=O)N1CCCC1C(N)=O (some centres undefined) (Ac-MWDFDDLNF[2(aminomethyl)benzoyl]MPPADEDYS[ξP]-NH2)
7 | CSCC[C@H](NC(C)=O)C(=O)N[C@@H](Cc1c[nH]c2ccccc12)C(=O)N[C@@H](CC(=O)O)C(=O)N[C@@H](Cc1ccccc1)C(=O)N[C@@H](CC(=O)O)C(=O)N[C@@H](CC(=O)O)C(=O)NCCCCCC(=O)N[C@@H](CCSC)C(=O)N1CCC[C@H]1C(=O)N1CCC[C@H]1C(=O)N[C@@H](C)C(=O)N[C@@H](CC(=O)O)C(=O)N[C@@H](CCC(=O)O)C(=O)N[C@@H](CC(=O)O)C(=O)N[C@@H](Cc1ccc(O)cc1)C(=O)N[C@@H](CO)C(=O)N1CCC[C@H]1C(N)=O (Ac-MWDFDD[Ahx]MPPADEDYSP-NH2)
4 | CSCC[C@H](NC(C)=O)C(=O)N[C@@H](Cc1c[nH]c2ccccc12)C(=O)N[C@@H](CC(=O)O)C(=O)N[C@@H](Cc1ccccc1)C(=O)N[C@@H](CC(=O)O)C(=O)N[C@@H](CC(=O)O)C(=O)N[C@@H](CC(C)C)C(=O)N[C@@H](CC(N)=O)C(=O)N[C@@H](Cc1ccccc1)C(=O)NCc1cccc(C(=O)N[C@@H](CCSC)C(=O)N2CCC[C@H]2C(=O)N2CCC[C@H]2C(=O)N[C@@H](C)C(=O)N[C@@H](CC(=O)O)C(=O)N[C@@H](CCC(=O)O)C(=O)N[C@@H](CC(=O)O)C(=O)N[C@@H](Cc2ccc(O)cc2)C(=O)N[C@@H](CO)C(=O)N2CCC[C@H]2C(N)=O)c1 (Ac-MWDFDDLNF[3Amb]MPPADEDYSP-NH2)
